Measured values reported in article PMC9598656, “In Vitro Activity of Robenidine Analogues NCL259 and NCL265 against Gram-Negative Pathogens” (Antibiotics, 2022).
Values after ≈ are worked out from the molar mass of the structure shown. Like-named read-outs stand apart in the source and are kept apart here.

Assays:
[1] = tested on: MDBK (normal Madin–Darby bovine kidney cell line); assay: In vitro cytotoxicity, WST-1; type: cell-based; conditions: Bos taurus, 24 h
From the text: (§1) Potential toxicity of NCL259 and NCL265 to mammalian cells relative to the parent compound (NCL812) was examined using Caco-2 (human colorectal adenocarcinoma cell line), HEL 299 (non-cancerous human lung fibroblast cell line), Hep G2 (human hepatocellular carcinoma cell line), MCF-7 (human mammary gland adenocarcinoma cell line), MDBK (normal Madin–Darby bovine kidney cell line) and Vero (normal adult African green monkey cell line), essentially as described previously. Toxicity to the cell lines was performed using serial two-fold dilutions of each compound from 128 to 1 μg/mL in duplicates in flat bottom 96 well tissue culture trays (Sarstedt 83.3924) containing approximately 2 × 10^4 cells per well in antibiotic-free Dulbecco’s Modified Eagle’s Medium (DMEM; Gibco Cat No: 12430; Thermo Fisher Scientific, Scoresby, VIC, Australia) consisting of 10% (v/v) fetal bovine serum at 37 °C, 5% CO2 for 24 h. Duplicate wells containing ampicillin at 128 to 1 μg/mL were used as controls. Thereafter, 10% (v/v) of the WST-1 cell proliferation assay reagent (Cat No: 05015944001; Roche Life Science, North Ryde, NSW, Australia) was added to each well, the trays were further incubated at 37 °C, 5% CO2 for 1 h and absorbance read at A450nm on a Multiskan Ascent 354 Spectrophotometer (Labsystems, Lilydale, VIC, Australia). The inhibitory concentration of each compound was determined as the half maximal inhibitory concentration (IC50) at A450nm.

[2] = tested on: HEL 299 (non-cancerous human lung fibroblast cell line); assay: In vitro cytotoxicity, WST-1; type: cell-based; conditions: HEL 299, 24 h
From the text: as §1

[3] = tested on: Vero (normal adult African green monkey cell line); assay: In vitro cytotoxicity, WST-1; type: cell-based; conditions: Chlorocebus sabaeus, 24 h
From the text: as §1

[4] = tested on: Hep G2 (human hepatocellular carcinoma cell line); assay: In vitro cytotoxicity, WST-1; type: cell-based; conditions: HepG2, 24 h
From the text: as §1

[5] = tested on: MCF-7 (human mammary gland adenocarcinoma cell line); assay: In vitro cytotoxicity, WST-1; type: cell-based; conditions: MCF7, 24 h
From the text: as §1

[6] = tested on: Companion animal ExPEC (n = 51); assay: MIC, broth micro-dilution, clinical isolates; type: cell-based, Escherichia coli; conditions: for MIC range: Companion animal ExPEC (n = 51); for MIC50 / MIC90: Escherichia coli
Description: (§2) A variety of Gram-negative reference strains (E. coli ATCC 25922, E. coli ATCC 10763, P. aeruginosa PAO1, P. aeruginosa ATCC 27853, A. baumannii ATCC 12457, A. baumannii ATCC 19606, K. pneumoniae ATCC 4352 and K. pneumoniae ATCC 33495) were used for initial screening and combination testing with PMB. The organisms were speciated using biochemical testing and MALDI-TOF mass spectrometry (Bruker, Preston, VIC, Australia). Activity testing of NCL259 and NCL265 was also carried out on 51 extraintestinal clinical E. coli isolates from companion animals, and 83 porcine and bovine enterotoxigenic E. coli (ETEC) isolates from the Australian Centre for Antimicrobial Resistance Ecology collection. E. coli wild-type (BW 25113) and its mutant BW 25113∆AcrB, in which the inner membrane component AcrB of the tripartite multidrug efflux system AcrA/AcrB/TolC has been deleted, were obtained from the bacterial collection held at Health and Biomedical Innovation, Clinical and Health Sciences, The University of South Australia. All isolates were cultured on sheep blood agar (SBA) plates at 37 °C for 18 h before being subcultured into Luria Bertaini (LB) (Oxoid, Scoresby, VIC, Australia) broth and grown to A600nm = 0.5 (equivalent to approx. 1.5 × 10^8 colony-forming units (CFU)/mL).
(§3) MICs for NCL259 and NCL265 (serial two-fold dilutions commencing at 256 µg/mL) were determined (in duplicate) in round bottom 96–well microtitre trays (Sarstedt 82.1582.001), using the broth micro-dilution method recommended by the Clinical and Laboratory Standards Institute (CLSI). We have shown previously that robenidine can chelate calcium ions from cation-adjusted Mueller-Hinton broth, which causes the loss of activity of robenidine. Therefore, LB broth was used in this study. Additionally, considering the low solubility of robenidine and its analogues in aqueous solutions, two-fold serial dilutions of stock solutions of these compounds were prepared in 100% DMSO [21]. The MIC for ampicillin against each isolate was determined for each test to serve as an internal quality control. The MICs of isolates were determined by visual reading and using an EnSpire Multimode Plate Reader 2300 at A600nm.

[7] = tested on: Porcine/bovine ETEC (n = 83); assay: MIC, broth micro-dilution, clinical isolates; type: cell-based, Escherichia coli; conditions: for MIC50 / MIC90: Escherichia coli; for MIC range: Porcine/bovine ETEC (n = 83)
Description: as §2, §3

[8] = tested on: K. pneumoniae 13GNB–429, K. pneumoniae 13GNB–550 and K. oxytoca 13GNB–582; assay: MIC, three resistant Klebsiella isolates; type: cell-based; conditions: three resistant Klebsiella spp. isolates
Description: as §3

[9] = tested on: human Gram-negative isolates comprising 19 E. aerogenes, 20 E. coli, 19 E. cloacae, 20 K. pneumoniae and 16 K. oxytoca; design: method as in PMID 30318716; conditions: panel of human Gram-negative isolates; cited from earlier work
[10] = tested on: Wild-type (E. coli BW 25113); assay: MIC, efflux-pump wild-type; type: cell-based; conditions: Escherichia coli, read-out: MIC Values
Description: as §2
as §3, with “Additionally, considering the low solubility of robenidine and its analogues in aqueous solutions, two-fold serial dilutions of stock solutions of these compounds were prepared in 100% DMSO [21].” left out

[11] = first of two independent experiments
[12] = second of two independent experiments

With `[H]/N=C(\N)NN=C(CCCCCC)c1ccc(Cl)cc1` [NCL265, (E)-2-(1-(4-chlorophenyl)heptylidene)hydrazine-1-carboximidamide] the IC50 [1, 11] was 3 µg/mL (≈ 10.7 µM), the IC50 [1, 12] was 2 µg/mL (≈ 7.12 µM) and the IC50 [2, 11] was < 2 µg/mL. For the same molecule, the IC50 [2, 12] was < 2 µg/mL, the IC50 [3, 11] was 6 µg/mL (≈ 21.4 µM) and the IC50 [3, 12] was 3 µg/mL (≈ 10.7 µM). The IC50 [4, 11] was < 1 µg/mL, the IC50 [4, 12] was < 1 µg/mL and the IC50 [5, 11] was < 1 µg/mL. For the same molecule, the IC50 [5, 12] was 6 µg/mL (≈ 21.4 µM), the “MIC range” value [6] was 4 to 16 µg/mL and the MIC50 [6] was 32 µg/mL. The MIC90 [6] was 32 µg/mL, the MIC50 [7] was 8 µg/mL and the MIC90 [7] was 8 µg/mL. For the same molecule, the “MIC range” value [7] was 2 to 16 µg/mL, the MIC [8] was > 256 µg/mL and the MIC ([8]; read-out: MIC) was > 256 µg/mL. The MIC range [9] was 2 to 64 µg/mL and the MIC [10] was 16 µg/mL.
With `[H]/N=C(\N)NN=C(CC1CCCCC1)c1ccc(Cl)cc1` [NCL259, (E)-2-(1-(4-chlorophenyl)-2-cyclohexylethylidene)hydrazine-1-carboximidamide] the IC50 [1, 11] was 2 µg/mL (≈ 6.83 µM), the IC50 [1, 12] was 2 µg/mL (≈ 6.83 µM) and the IC50 [2, 11] was < 2 µg/mL. The IC50 [2, 12] was < 2 µg/mL, the IC50 [3, 11] was 6 µg/mL (≈ 20.5 µM) and the IC50 [3, 12] was 3 µg/mL (≈ 10.2 µM). For the same molecule, the IC50 [4, 11] was < 1 µg/mL, the IC50 [4, 12] was < 1 µg/mL and the IC50 [5, 11] was 3 µg/mL (≈ 10.2 µM). For the same molecule, the IC50 [5, 12] was 6 µg/mL (≈ 20.5 µM), the “MIC range” value [6] was 16 to 64 µg/mL and the MIC50 [6] was 32 µg/mL. The MIC90 [6] was 32 µg/mL, the MIC50 [7] was 8 µg/mL and the MIC90 [7] was 8 µg/mL. For the same molecule, the “MIC range” value [7] was 4 to 64 µg/mL, the MIC [8] was > 256 µg/mL and the MIC ([8]; read-out: MIC) was > 256 µg/mL. For the same molecule, the MIC range [9] was 2 to 64 µg/mL and the MIC [10] was 64 µg/mL.
